Here are results for 55 compounds from patent publication US20120232062A1, “AZAINDAZOLES TO TREAT FLAVIVIRIDAE VIRUS INFECTION” (EIGER BIOPHARMACEUTICALS, INC., priority 2009, published 2012).

Structures are written as SMILES.

One assay relates to HCV genotype 1b. The experiment in a line: HCV 1b replicon luciferase assay. The conditions noted are these: Hepatitis C virus, 48 h, read-out: EC50 in the 48 hour 1b replicon assay, 48 hour. It is filed as cell-based. The source says:
A suitable 1b HCV RNA replicon assay uses the Huh7 cell line which contains an HCV 1b RNA replicon with a stable luciferase (LUC) reporter. This construct contains modifications that make the cell line more robust and provides stable LUC expression for antiviral screening. The LUC reporter is used as an indirect measure of HCV replication. The activity of the LUC reporter is directly proportional to HCV RNA levels and positive control antiviral compounds behave comparably using LUC endpoints. […]
Fresh growth medium is prepared just before use. The container used in the procedure is a 10 cm diameter culture dish. HCV replicon reporter cell lines are used. Prepare complete medium: add FBS and appropriate additives as described in “Culture Media”, below. Pre-warm the medium in a 37° C. thermostat water bath. Remove the dish from a 37° C. CO2 incubator. Check the cell name and complete medium and passage number marked on the dish. Aspirate the medium carefully and add 1 ml PBS to rinse the cells. Remove and discard the solution and add 1 ml of 0.25% Trypsin/0.02% EDTA. Rinse the cells with the added Trypsin/EDTA to ensure all the cells have been rinsed. Remove the Trypsin/EDTA with a vacuum pump and incubate at 37° C. for 3-5 minutes. Examine the cell morphology under an inverted microscope to confirm that a single cell suspension is clearly visible. Add 3 ml of complete medium to the dish and suspend the cell by gentle pipetting. Count the cell numbers with a hematometer. Adjust cell density to 100 k/ml by adding appropriate volume of the complete medium. Add 100 μl of cell suspension to each well of a 96-well white plate; the cell density is thus 10 k per well. Mark the plate with cell name, passage number, seeding density, date and the name of the operator. Place the 96-well assay plate in 37° C. 5% CO2 incubator for 24 hours.
Compounds are prepared or provided at 25 mM in 100% DMSO. This is the compound stock solution. The dilution procedure should be performed in a cell culture hood. Dispense the stock solution into the second column of a 96-well plate. Prepare 9-step (10 concentrations total), 5-fold serial dilutions by transferring 10 μA of the compound into the next well containing 40 μA of DMSO. Repeat for all compounds. Aspirate 2 μl of the above compound solution from each well and add into 198 μl complete media using a 12-channel pipetter to obtain the 10-fold concentration compound solution with 1% DMSO, mix well.
Remove the 96-well assay plate from the 37° C./5% CO2 incubator, examine the cell morphology under an inverted microscope. In a cell culture hood, add 10 μl of the 10× concentration compounds solution into each well on the 96-well assay plate. All compound's dose responses are done in duplicate. The starting final concentration of the compounds is 25 μM, and DMSO final concentration 0.1%. Mark the plate with compound code(s) and concentrations. Place the 96-well assay plate into CO2 incubator for 48 hours. Add 30 μl of Stead-Glo Luciferase System (Promega) reagent to each well and mix by gentle shaking on a plate shaker for 5 minutes to allow throughout cell lysis. Measure the luminescence with Envision (Perkin Elmer) with an integration time of 2 seconds. Record and analyze the data.
The cell culture media is DMEM complete: DMEM (Life Technologies #41965-039) supplemented with 10% FCS, 2 mM Glutamin (Life Technologies #25030-024), Penicillin (100 IU/ml)/Streptomycin (100 μg/ml) (Life Technologies #15140-114) and 1× nonessential amino acids (Life Technologies #11140-035). G418 (“Geneticin”, Life Technologies): concentrations are given as weight per volume of the original substance. Specific activity of a typical batch is ca. 700 μg/mg as stated by the manufacturer. […] Therefore each new batch of G418 should be tested individually e.g. in an electroporation experiment using different selection conditions (0.2-1 mg/ml).
(In antiviral work, replicon cells carry a viral genome segment that copies itself.)
What is called EC50 is the concentration needed to bring the measured effect to its halfway point. Consider `Cn1nc(C(=O)NC2CCN(CC3CCCCC3)CC2)c2ccc(N3CCCCCC3)nc21` [EBP987], for which the EC50 is < 3 µM.

The same assay, now with this note: Hepatitis C virus, Huh-7, 48 h, Table 1; Huh7 HCV 1b replicon, luciferase reporter, 48 hours; read-out: 1b EC50.
As to `CC(C)c1ccc(CN(c2ccc3c(C(=O)NC4CCN(CCN5CCCCC5)CC4)nn(C)c3n2)C2CCCCCC2)cc1` [compound 1303], the concentration giving a half-maximal response (EC50) stood at 0.66 µM.

For `Cn1nc(-c2nnc(C3CCN(CC(F)F)CC3)o2)c2ccc(N3CCCCCCC3)nc21` [compound 1323], the EC50 was 4.4 µM.

On to `Cn1nc(-c2cnc(C(=O)NC3CCCNC3)s2)c2ccc(N3CCCCCC3)nc21` (stereo not shown) [compound 1128], for which the half-maximal effective concentration (EC50) is 0.49 µM.

As to `Cn1nc(C(=O)NCc2ccccc2)c2ccc(N3CCCCCC3)nc21` [compound 830], the EC50 was 7.3 µM.

As for `Cn1nc(C(=O)NC2CCCN(S(C)(=O)=O)C2)c2ccc(N3CCCCCC3)nc21` (stereo not shown) [compound 700], the EC50 amounted to 3.8 µM.

On to `Cn1nc(CN2CCCC2CO)c2ccc(N3CCCCCC3)nc21` (stereo not shown) [compound 791], for which the EC50 stood at 8.5 µM.

In the case of `Cn1nc(-c2cnc(C3CCN(CC(F)F)C3)s2)c2ccc(N3CCCCCCC3)nc21` (stereo not shown) [compound 1269], the EC50 came to 4.6 µM.

Consider `Cn1nc(CCCN2CC=CC2)c2ccc(N3CCCCCCC3)nc21` [compound 1461], for which the EC50 came to 2.6 µM.

Consider `O=C(N[C@H]1CCNC1)c1nn(Cc2ccc(Cl)cc2)c2nc(N3CCCCCC3)ccc12` [compound 707], for which the EC50 was 3.3 µM.

In the case of `CC1CC(NC(=O)c2nn(C)c3nc(N4CCCCCCC4)ccc23)CCN1CC1CCCCC1` (stereo not shown) [compound 1151], the EC50 amounted to 1.4 µM.

Regarding `Cn1nc(-c2nnc(C3CCN(CCN4CCCCC4)C3)o2)c2ccc(N3CCCCCCC3)nc21` (stereo not shown) [compound 1368], the EC50 worked out at 4.8 µM.

On to `C=CCCCCCn1nc(C(=O)NC2CCN(CC=C)CC2)c2ccc(N3CCCCCC3)nc21` [compound 1106], for which the EC50 was determined as 8.1 µM.

Take `Cn1nc(C(=O)NC2CCNCC2)c2ccc(OCc3ccccc3-c3cccc(Cl)c3)nc21` [compound 1088]: the EC50 worked out at 1.4 µM.

`C=CCCCn1nc(C(=O)NC2CCN(CC=C)CC2)c2ccc(N3CCCCCC3)nc21` [compound 1104]: the EC50 amounted to 2.2 µM.

In the case of `Clc1ccc(Cn2nc(CNC3CCNCC3)c3ccc(N4CCCCCC4)nc32)cc1` [compound 762], the EC50 was determined as 2.9 µM.

On to `Cn1nc(-c2c[nH]c(C3CCCNC3)n2)c2ccc(N3CCCCCC3)nc21` (stereo not shown) [compound 1095], for which the EC50 worked out at 3.8 µM.

Take `Cn1nc(C(=O)Nc2cccc(S(N)(=O)=O)c2)c2ccc(N3CCCCCC3)nc21` [compound 824]: the EC50 was 3.5 µM.

Regarding `COC[C@@H]1CCCN1c1ccc2c(C(=O)NC3CCNCC3)n[nH]c2n1` [compound 778], the 50% effective concentration (EC50) came out at 17 µM.

In the case of `Cn1nc(C(=O)NC2CCNCC2)c2ccc(NC3CCCCCCC3)nc21` [compound 885], the EC50 turned out to be 0.889 µM.

Consider `Cn1nc(-c2cnc(C(=O)NC3CCNCC3)s2)c2ccc(N3CCCCCC3)nc21` [compound 1127], for which the EC50 is 2.9 µM.

As to `Cn1nc(C(=O)NC2CCN(CC3CCCCC3)CC2)c2ccc(NC3CCCCCCC3)nc21` [compound 1076], the EC50 stood at 0.6 µM.

Take `CCN(c1ccc2c(C(=O)NC3CCN(CC4CCCCC4)CC3)nn(C)c2n1)C1CCCCCC1` [compound 1183]: the EC50 stood at 0.746 µM.

Consider `C=CCCCCn1nc(C(=O)NC2CCN(CC=C)CC2)c2ccc(N3CCCCCC3)nc21` [compound 1105], for which the EC50 is 7.5 µM.

As for `CC1CC(NC(=O)c2nn(C)c3nc(N4CCCCCCC4)ccc23)CCN1CCCC1CCCCC1` (stereo not shown) [compound 1153], the EC50 was 1.5 µM.

Take `Cn1nc(C(=O)N2CCNCC2)c2ccc(N3CCCCCC3)nc21` [compound 823]: the EC50 turned out to be 7.6 µM.

With `Cn1nc(NC(=O)c2ccncc2)c2ccc(N3CCCC3)nc21` [compound 788], the EC50 was 9.5 µM.

For `CC(C)CN(C)c1ccc2c(C(=O)NC3CCNCC3)nn(C)c2n1` [compound 690], the EC50 was determined as 1.2 µM.

Take `Cn1nc(C(=O)NC2CCN(CC3CCCCC3)CC2)c2ccc(N(Cc3ccccc3)C3CCCCCC3)nc21` [compound 1184]: the EC50 stood at 0.168 µM.

Consider `Cn1nc(-c2nnc(C3CCN(CC4CCCCC4)C3)o2)c2ccc(N3CCCCCCC3)nc21` (stereo not shown) [compound 1365], for which the EC50 amounted to 2.6 µM.

Consider `Cn1nc(C(=O)NC2CCN(C3CCCC3)CC2)c2ccc(N3CCCCCC3)nc21` [compound 1040], for which the EC50 was determined as 2.8 µM.

For `Cn1nc(C(=O)NC2CCN(CC3CC3)CC2)c2ccc(N3CCCCCCC3)nc21` [compound 1222], the half-maximal effective concentration (EC50) is 3.2 µM.

With `Cn1nc(CCCN2C[C@@H](O)[C@@H](O)C2)c2ccc(N3CCCCCCC3)nc21` [compound 1495], the EC50 was 4.7 µM.

On to `Nc1nn(Cc2ccc(Cl)cc2)c2nc(N3CCCCCC3)ccc12` [compound 759], for which the EC50 worked out at 8.6 µM.

In the case of `O=C(NC1CCNCC1)c1nn(-c2ccccc2)c2nc(N3CCCCCC3)ccc12` [compound 1350], the EC50 came out at 3.8 µM.

As to `Cn1nc(C(=O)N[C@H]2CCNC2)c2ccc(N3CCCCCC3)nc21` [compound 822], the EC50 turned out to be 4.3 µM.

Consider `Cn1nc(-c2c[nH]c(C3CCNCC3)n2)c2ccc(N3CCCCCC3)nc21` [compound 1094], for which the EC50 came to 6.5 µM.

In the case of `O=C(NC1CCCNC1)c1nn(Cc2ccc(Cl)cc2)c2nc(N3CCCCCC3)ccc12` (stereo not shown) [compound 705], the EC50 was determined as 2.7 µM.

For the compound `Cn1nc(NC(=O)c2cccnc2Cl)c2ccc(N3CCCCCC3)nc21` [compound 832], the EC50 is 3.3 µM.

As to `CC1CC(NC(=O)c2n[nH]c3nc(N4CCCCCC4)ccc23)CCN1` (stereo not shown) [compound 734], the EC50 was found to be 2.6 µM.

On to `Cn1nc(C(=O)N[C@H]2C[C@H]3CC[C@@H](C2)N3)c2ccc(N3CCCCCC3)nc21` [compound 984], for which the concentration for a half-maximal effect (EC50) worked out at 2.2 µM.

As for `Cn1nc(CNC2CCNCC2)c2ccc(N3CCCCCC3)nc21` [compound 976], the EC50 worked out at 4.7 µM.

As for `Cn1nc(C(=O)Nc2cc[nH]n2)c2ccc(N3CCCCCC3)nc21` [compound 827], the EC50 is 3.2 µM.

Take `CC(C)CCN1CCC(NC(=O)c2nn(C)c3nc(N4CCCCCCC4)ccc23)CC1C` (stereo not shown) [compound 1233]: the EC50 turned out to be 5.3 µM.

In the case of `Cn1nc(COCC2CCCNC2)c2ccc(N3CCCCCC3)nc21` (stereo not shown) [compound 986], the EC50 amounted to 7.9 µM.

For the compound `Cn1nc(C(=O)NC2CCN(C(=O)C3CCCCC3)CC2)c2ccc(N3CCCCCC3)nc21` [compound 1030], the EC50 was determined as 4.8 µM.

For the compound `CCCn1nc(C(=O)NC2CCNCC2)c2ccc(N3CCCCCC3)nc21` [compound 858], the concentration for a half-maximal effect (EC50) was 3.3 µM.

Take `Cn1nc(C(=O)NC2CCNCC2)c2ccc(OC3CCCCC3)nc21` [compound 817]: the EC50 is 3.4 µM.

`Cn1nc(NC(=O)[C@H]2CC[C@@H](N)CC2)c2ccc(N3CCCCCC3)nc21` [compound 844]: the EC50 is 6.6 µM.

Regarding `Clc1ccc(Cn2nc(CN3CCCC3)c3ccc(N4CCCCCC4)nc32)cc1` [compound 763], the EC50 came to 8.7 µM.

Take `Cn1nc(C(=O)NC2CCN(C3CCCCC3)CC2)c2ccc(N3CCCCCC3)nc21` [compound 1594]: the EC50 came to 1.8 µM.

Take `Cn1nc(CN2CCNCC2)c2ccc(N3CCCCCC3)nc21` [compound 812]: the EC50 stood at 4.6 µM.

With `Cn1nc(CCCN2CC[C@H](O)C2)c2ccc(N3CCCCCCC3)nc21` [compound 1458], the EC50 came out at 3.2 µM.

Staying with this assay, now noted: Table 1; Huh7 HCV 1b replicon, luciferase reporter, 48 hours; read-out: 1b EC50.
In the case of `Cn1nc(C(=O)NC2CCNCC2)c2ccc(OC3CCCCC3)nc21` [compound 913], the EC50 came to 4.7 µM.

For the compound `Cc1ccc(CN2CCC(NC(=O)c3nn(C)c4nc(N5CCCCCC5)ccc34)CC2)cc1` [compound 1045], the EC50 is 1.1 µM.
